Source: ChEMBL document CHEMBL3132769, “Fragment growing to retain or alter the selectivity of anchored kinase hinge-binding fragments” (Medchemcomm, 2014)

Legend:
[1] = molecular target: T1, Protein kinase C epsilon type (Homo sapiens) (UniProt Q02156); assay: Inhibition of human truncated PKC epsilon expressed in baculovirus assessed as substrate phosphorylation using fluorescence-labelled peptides as substrate at 95 uM after 90 mins by microfluidic peptide phosphorylation assay
T1 sequence (whole entry): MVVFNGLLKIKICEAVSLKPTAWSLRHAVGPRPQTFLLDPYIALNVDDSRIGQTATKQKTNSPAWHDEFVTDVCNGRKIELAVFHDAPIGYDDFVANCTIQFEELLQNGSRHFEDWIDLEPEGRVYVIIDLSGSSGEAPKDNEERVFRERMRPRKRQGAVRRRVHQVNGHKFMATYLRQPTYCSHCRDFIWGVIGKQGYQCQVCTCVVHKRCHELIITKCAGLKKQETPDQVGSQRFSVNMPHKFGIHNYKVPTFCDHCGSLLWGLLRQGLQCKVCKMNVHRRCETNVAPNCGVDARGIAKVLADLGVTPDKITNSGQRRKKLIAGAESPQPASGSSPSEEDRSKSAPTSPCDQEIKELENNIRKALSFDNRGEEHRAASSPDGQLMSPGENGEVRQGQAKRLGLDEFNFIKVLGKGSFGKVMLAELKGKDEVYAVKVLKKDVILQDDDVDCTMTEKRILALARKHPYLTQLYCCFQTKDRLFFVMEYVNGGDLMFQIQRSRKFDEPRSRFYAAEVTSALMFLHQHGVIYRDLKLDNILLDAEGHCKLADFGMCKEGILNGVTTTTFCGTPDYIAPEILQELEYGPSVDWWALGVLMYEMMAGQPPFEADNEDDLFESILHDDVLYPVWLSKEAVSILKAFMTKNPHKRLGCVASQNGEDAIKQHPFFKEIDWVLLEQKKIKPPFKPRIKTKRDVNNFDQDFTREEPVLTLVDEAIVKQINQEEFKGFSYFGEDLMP

[2] = molecular target: T2, Serine/threonine-protein kinase DCLK2 (Homo sapiens) (UniProt Q8N568); assay: Inhibition of human full length DCAMKL2 expressed in baculovirus assessed as substrate phosphorylation using fluorescence-labelled peptides as substrate at 0.06 uM after 90 mins by microfluidic peptide phosphorylation assay
T2 sequence (whole entry): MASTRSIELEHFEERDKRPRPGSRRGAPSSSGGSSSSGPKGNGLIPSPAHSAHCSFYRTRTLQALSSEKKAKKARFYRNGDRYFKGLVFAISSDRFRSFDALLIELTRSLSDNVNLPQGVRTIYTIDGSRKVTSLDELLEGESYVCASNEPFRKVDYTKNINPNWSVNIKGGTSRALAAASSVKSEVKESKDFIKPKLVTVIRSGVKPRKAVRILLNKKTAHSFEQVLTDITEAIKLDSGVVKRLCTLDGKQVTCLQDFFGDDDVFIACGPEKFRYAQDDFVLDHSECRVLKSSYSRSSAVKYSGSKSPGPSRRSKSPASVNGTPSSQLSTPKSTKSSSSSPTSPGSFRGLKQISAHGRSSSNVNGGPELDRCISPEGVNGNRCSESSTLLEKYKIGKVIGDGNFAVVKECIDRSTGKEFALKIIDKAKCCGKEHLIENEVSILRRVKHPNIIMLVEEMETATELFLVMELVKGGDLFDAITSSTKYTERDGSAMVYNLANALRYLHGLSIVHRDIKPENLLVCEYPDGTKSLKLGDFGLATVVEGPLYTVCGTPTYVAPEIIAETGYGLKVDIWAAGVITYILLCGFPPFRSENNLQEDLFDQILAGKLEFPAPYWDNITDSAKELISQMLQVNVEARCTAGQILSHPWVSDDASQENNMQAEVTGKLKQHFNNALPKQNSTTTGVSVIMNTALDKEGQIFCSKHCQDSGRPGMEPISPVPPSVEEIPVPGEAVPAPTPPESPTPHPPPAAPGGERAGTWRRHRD

[3] = molecular target: T3, Serine/threonine-protein kinase Nek2 (Homo sapiens) (UniProt P51955); assay: Inhibition of human full length NEK2 expressed in baculovirus assessed as substrate phosphorylation using fluorescence-labelled peptides as substrate at […] after 90 mins by microfluidic peptide phosphorylation assay
T3 sequence (whole entry): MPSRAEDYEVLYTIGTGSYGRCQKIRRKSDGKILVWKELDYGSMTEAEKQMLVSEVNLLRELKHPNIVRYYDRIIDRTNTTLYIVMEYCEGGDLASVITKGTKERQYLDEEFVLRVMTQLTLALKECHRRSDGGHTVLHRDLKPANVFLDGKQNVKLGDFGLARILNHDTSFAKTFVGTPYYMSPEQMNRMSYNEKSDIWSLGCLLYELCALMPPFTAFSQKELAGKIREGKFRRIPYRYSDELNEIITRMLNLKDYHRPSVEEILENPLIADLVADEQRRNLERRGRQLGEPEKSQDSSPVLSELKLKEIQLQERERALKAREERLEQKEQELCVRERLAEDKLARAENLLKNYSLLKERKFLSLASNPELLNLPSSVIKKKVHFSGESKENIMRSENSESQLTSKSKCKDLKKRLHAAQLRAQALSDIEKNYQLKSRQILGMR

[4] = molecular target: Calcium/calmodulin-dependent protein kinase type II subunit gamma (Homo sapiens) (UniProt Q13555); assay: Inhibition of human CAMK2 gamma catalytic domain expressed in baculovirus assessed as substrate phosphorylation using fluorescence-labelled peptides as substrate at 70 uM after 90 mins by microfluidic peptide phosphorylation assay
[5] = test system: Fibroblast growth factor receptor 2 (Homo sapiens), P21802 [N549H]; assay: Inhibition of human FGFR2 N549H mutant catalytic domain expressed in baculovirus assessed as substrate phosphorylation using fluorescence-labelled peptides as substrate at 1000 uM after 90 mins by microfluidic peptide phosphorylation assay
Chain of Fibroblast growth factor receptor 2 (Homo sapiens), P21802 [N549H] (P21802 whole entry N549H, the tested form may be a part): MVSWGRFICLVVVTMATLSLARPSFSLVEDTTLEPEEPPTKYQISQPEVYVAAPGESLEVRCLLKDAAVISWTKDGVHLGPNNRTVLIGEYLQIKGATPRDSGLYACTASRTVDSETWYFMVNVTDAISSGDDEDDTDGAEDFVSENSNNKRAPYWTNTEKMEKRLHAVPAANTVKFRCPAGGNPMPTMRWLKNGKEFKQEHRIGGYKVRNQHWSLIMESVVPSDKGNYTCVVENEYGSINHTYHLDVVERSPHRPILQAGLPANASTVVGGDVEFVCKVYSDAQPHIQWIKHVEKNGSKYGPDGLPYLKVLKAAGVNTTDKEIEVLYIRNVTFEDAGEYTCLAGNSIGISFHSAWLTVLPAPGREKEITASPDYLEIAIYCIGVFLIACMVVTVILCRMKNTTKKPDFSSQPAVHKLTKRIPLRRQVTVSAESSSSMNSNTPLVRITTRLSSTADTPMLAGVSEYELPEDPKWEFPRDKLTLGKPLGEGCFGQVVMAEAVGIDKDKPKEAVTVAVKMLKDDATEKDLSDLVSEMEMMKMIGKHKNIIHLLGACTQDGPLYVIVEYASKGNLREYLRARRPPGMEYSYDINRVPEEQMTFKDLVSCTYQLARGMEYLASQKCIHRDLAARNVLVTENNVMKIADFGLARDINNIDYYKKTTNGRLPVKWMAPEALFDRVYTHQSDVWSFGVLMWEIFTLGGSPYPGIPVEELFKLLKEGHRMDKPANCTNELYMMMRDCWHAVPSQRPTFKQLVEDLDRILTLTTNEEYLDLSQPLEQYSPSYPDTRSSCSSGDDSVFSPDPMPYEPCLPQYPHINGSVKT

Chain of Calcium/calmodulin-dependent protein kinase type II subunit gamma (Homo sapiens) (Q13555 whole entry, the tested form may be a part): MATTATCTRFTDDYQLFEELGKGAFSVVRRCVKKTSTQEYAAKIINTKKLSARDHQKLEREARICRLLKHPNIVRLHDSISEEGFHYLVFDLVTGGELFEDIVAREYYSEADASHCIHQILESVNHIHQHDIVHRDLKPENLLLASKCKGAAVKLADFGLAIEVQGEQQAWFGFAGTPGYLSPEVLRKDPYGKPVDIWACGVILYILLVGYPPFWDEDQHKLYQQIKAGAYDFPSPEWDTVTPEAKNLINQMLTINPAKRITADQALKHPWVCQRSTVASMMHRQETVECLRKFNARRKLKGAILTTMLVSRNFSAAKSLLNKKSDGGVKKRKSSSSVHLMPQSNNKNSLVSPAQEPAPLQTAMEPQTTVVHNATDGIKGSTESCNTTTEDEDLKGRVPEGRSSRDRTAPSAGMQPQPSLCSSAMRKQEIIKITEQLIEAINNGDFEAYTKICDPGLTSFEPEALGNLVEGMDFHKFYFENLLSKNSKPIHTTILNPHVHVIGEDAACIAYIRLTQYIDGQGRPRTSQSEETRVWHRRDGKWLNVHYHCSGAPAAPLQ

NCCc1ccc(-c2ncnc3[nH]cnc23)cc1
inhibition [1]: 49%

NC1(Cc2ccc(Cl)cc2)CCN(c2ncnc3[nH]ccc23)CC1
inhibition [2]: 0%

COC(=O)c1cnc(Nc2cnc(C#N)cn2)cc1NCC1CCNCC1
inhibition [3]: 0.5%

CNCc1ccc(-c2ncnc3[nH]cnc23)cc1
inhibition [4]: 16%

c1cnc2[nH]ccc2c1
inhibition [5]: 42%
